Results: PubChem BioAssay (NCI)
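96-well plates; 48 h exposure; 5 concentrations. Endpoints by linear interpolation between flanking doses. Not reached: highest tested concentration assigned. Definition used: TGI = concentration required for complete inhibition of growth.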

Legend:
Assay in all cases: inhibition of tumour cell growth, NCI panel, 48 h
HS 578T breast = system: HS 578T breast
HOP-92 NSCLC = system: HOP-92 NSCLC
SR leukemia = system: SR leukemia
HCT-15 colon = system: HCT-15 colon
HT29 colon = system: HT29 colon
ACHN renal = system: ACHN renal
OVCAR-4 ovarian = system: OVCAR-4 ovarian
SK-OV-3 ovarian = system: SK-OV-3 ovarian
MCF7 breast = system: MCF7 breast
BT-549 breast = system: BT-549 breast
TK-10 renal = system: TK-10 renal
IGROV1 ovarian = system: IGROV1 ovarian
MDA-MB-435 = system: MDA-MB-435
COLO 205 colon = system: COLO 205 colon
SK-MEL-5 melanoma = system: SK-MEL-5 melanoma
MOLT-4 leukemia = system: MOLT-4 leukemia
SF-268 CNS = system: SF-268 CNS

| Structure (SMILES) | TGI (HS 578T breast) [µM] | TGI (HOP-92 NSCLC) [µM] | TGI (SR leukemia) [µM] | TGI (HCT-15 colon) [µM] | TGI (HT29 colon) [µM] | TGI (ACHN renal) [µM] | TGI (OVCAR-4 ovarian) [µM] | TGI (SK-OV-3 ovarian) [µM] | TGI (MCF7 breast) [µM] | TGI (BT-549 breast) [µM] | TGI (TK-10 renal) [µM] | TGI (IGROV1 ovarian) [µM] | TGI (MDA-MB-435) [µM] | TGI (COLO 205 colon) [µM] | TGI (SK-MEL-5 melanoma) [µM] | TGI (MOLT-4 leukemia) [µM] | TGI (SF-268 CNS) [µM] |
| --- | --- | --- | --- | --- | --- | --- | --- | --- | --- | --- | --- | --- | --- | --- | --- | --- | --- |
| CN(C)CC(CN(C)C)c1ccccn1 | > 100 | > 100 | > 100 | > 100 | > 100 | > 100 | > 100 | > 100 | > 100 | > 100 | > 100 | > 100 | > 100 | > 100 | > 100 | > 100 | > 100 |
| Cc1nc(N)c(N2CCNCC2)c(=O)[nH]1 | > 100 | > 100 | > 100 | > 100 | > 100 | > 100 |  |  | > 100 | > 100 | > 100 |  | > 100 | > 100 |  | > 100 | > 100 |
| CC(=O)OCC1OC(N2C(c3ccccc3)=CC(c3ccccc3)C(C#N)=C2S)C(OC(C)=O)C(OC(C)=O)C1OC(C)=O (configuration not stated) | 29.8 | 16.6 | > 100 | > 100 | > 82.5 | 27 | > 31.6 |  | > 65.4 | 20.6 | 50.1 | > 52.9 | > 40.2 |  | 9.98 | > 100 | 19.6 |
| O=C(c1ccccc1)c1c2ccccn2c2cccc[n+]12 | > 100 | > 100 | > 100 | > 100 | > 100 |  | > 100 | > 100 | > 100 | > 100 | > 100 | > 100 | > 100 | > 100 | > 100 | > 100 | > 100 |
| CC1=C2C3=C(C)C(=O)C(C)(C)CC[C@@]3(C)[C@]2(C)CCC(C)(C)C1=O | > 100 |  | > 100 | > 100 | > 100 | > 100 | > 100 | > 100 | > 100 | > 100 | > 100 | > 100 | > 100 | > 100 | > 100 | > 100 | > 100 |
| O=c1[nH]nc(-c2cccc(Br)c2)[nH]1 | 79.7 | > 100 | > 100 | > 100 | > 100 | > 100 | > 100 |  | > 100 | > 100 | > 100 | > 100 | > 100 | > 100 | > 100 | > 100 | > 100 |
| N#Cc1nc(COCCOCc2ccccc2)oc1N | > 100 | > 100 | > 100 | > 100 | > 100 | > 100 | > 100 | > 100 | > 100 | > 100 | > 100 | > 100 | > 100 | > 100 | > 100 | > 100 | > 100 |
| C=CCN1C(=O)/C(=C/c2ccccc2)NC1=S | > 100 | > 100 | > 100 | > 100 | > 100 | > 100 | > 100 | > 100 | > 100 | > 100 | > 100 | > 100 | > 100 | > 100 | > 100 | > 100 | > 100 |
| CC(=O)O[C@@H]1C=C(C)[C@H](CBr)O[C@@]2(C)CC[C@H](Br)C(C)(C)[C@H]12 | > 100 | > 100 | > 100 | > 100 | > 100 | > 100 | > 100 | > 100 | > 100 | > 100 | > 100 | > 100 | > 100 | > 100 | > 100 | > 100 | > 100 |
| Nc1nc(Cl)cc(NCC2(CO)CC(OCc3ccccc3)C2)n1 (configuration not stated) | > 100 | > 100 | > 100 | > 100 | > 100 | > 100 | > 100 | > 100 | > 100 | > 100 | > 100 | > 100 | > 100 | > 100 | > 100 |  | 74.8 |
| NC(N)=N/N=C/c1c(Cl)nc2sccn12 | 84.8 | 70.6 | 54 |  | 31.6 | 33.4 | 46.4 | > 100 | 73.6 | > 100 | > 100 | > 100 | > 100 | 33.5 | 29.2 | > 100 | > 100 |
| Brc1ccc2c(-c3nc(-c4c[nH]c5ccc(Br)cc45)cs3)c[nH]c2c1 | > 52.9 | 11 | 13 | 13.1 | 3.61 | > 30 | 24.3 | 29.4 | 13.9 | 27.8 | 17.9 | 16.9 | 18.9 | 7.06 | 12.3 | 8.42 | 17.7 |
| CC(C(=O)N1c2ccccc2Sc2ccccc21)N1c2ccccc2Sc2ccccc21 (configuration not stated) | > 100 | > 100 | > 100 | > 100 | > 100 | > 100 | > 100 | > 100 | > 100 | > 100 | > 100 | > 100 | > 100 | > 100 | > 100 | > 100 | > 100 |
| Cc1cc(NS(=O)(=O)c2ccc(N=Nc3c(O)c(C(=O)O)cc4ccccc34)cc2)nc(C)n1 | > 100 | > 100 | > 100 | > 100 | > 100 | > 100 | > 100 | > 100 | > 100 | > 100 | > 100 | > 100 | > 100 | > 100 | > 100 | > 100 | > 100 |
